Tests used:
Assay type in all cases: cell-based, human
[1] = system: Pgp+ (DiOC2(3)-dye effluxing) T cells; assay: DiOC2(3) dye efflux flow cytometry of inhibitor-treated T cells; details: treatment for 13 days, IL2 + CD3 and CD28 antibodies
Method: (§1) The use of P-glycoprotein (Pgp)-mediated efflux of DiOC2(3) to isolate stem like T cells for adoptive cellular therapy has been described in application no. […] In the following examples, DiOC2(3) staining was used to study the effect of different inhibitors on generation of stem like T cells.
(§2) DAY 0: Blood was obtained from unidentified donor. After RBC lysis, PBMC were collected using Ficoll-Hypaque separation. […] T cells were cultured in three different conditions: • 1. XVIVO 15 medium (Lonza) with IL2 50 IU/ml, CD3 antibody (30 ng/ml) and CD28 antibody (30 ng/ml). • 2. XVIVO 15 medium (Lonza) with CD3 antibody (30 ng/ml) and CD28 antibody (30 ng/ml). • 3. XVIVO 15 medium (Lonza) with IL2 50 IU/ml DAY 1: Cells were plated in a 6-well plate at a density of 1 million cells in 2 ml/of media (as described above) and treated with different inhibitors
(§3) The cell growth medium was changed in 6-well plates and fresh drugs were added at same concentration for one more week.
(§4) […] (DAY 11): Culture medium was changed and fresh drugs were added in 6-well plates.
(§5) Subsequently, cells were washed with RPMI medium and dye was effluxed at 37° C. for 90 min. Cells were washed with […], stained with CD62L-APC (5 μl/100 μl/sample) at 4° C. for 1 h, washed twice with PBS+1% FBS and analyzed on flow cytometer to check if these drugs treatment leads to increase in Pgp+/CD62L positive population.
(§6) Day 0: Blood was obtained from unidentified donor. After RBC lysis, PBMC were collected using Ficoll-Hypaque separation. 200 million T cells were isolated from PBMCs using CD3 microbeads. T cells were cultured overnight in XVIVO 15 medium (Lonza) with IL2 (50 IU/ml), 30 ng/ml of CD3 and CD28 antibodies
(§7) Day 1: Cells were plated in 24-well plates at a density of 0.3 million cells/ml in each well and treated with different drugs.
(§8) On day 7, culture medium was replaced with fresh medium with fresh drugs.
(§9) On day 13, culture medium was replaced with fresh medium and fresh drugs. Half of the cells were transferred to 6-well plates.
(§10) Day 14: An aliquot of cells with all the treatments listed above (for 13 days) was used to stain the cells with DiOC2(3) (60 ng/ml in RPMI medium) at 4° C. for 40 min, washed with RPMI medium, DiOC2(3) dye was effluxed at 37° C. for 90 min, washed with PBS+1% FBS, stained with CD62L-APC antibody. CD62L is a marker for resting T cells. (5 μl/100 μl/sample) at 4° C. for 1 h, washed twice with PBS+1% FBS and analyzed on flow cytometer to check if these drugs are affecting the dye-effluxing or Pgp+ (i.e., DiOC2(3)-dull) T-cell population.

[2] = system: Pgp+ (DiOC2(3)-dye effluxing cells) and CD62L+ T cells; assay: DiOC2(3) dye efflux plus CD62L-APC staining, flow cytometry of inhibitor-treated T cells; details: treatment for 13 days, IL2 + CD3 and CD28 antibodies
Method: as §1, §2, §3, §4, §5, §6, §7, §8, §9, §10

[3] = system: CD8+CD45RA+CCR7+CD62L+ T cells; assay: Flow cytometry for CD8, CD45RA, CCR7 and CD62L on inhibitor-treated T cells; details: cells cultured for 14 days
Method: as §2
(§11) A second aliquot of the cells cultured for 13 days with all the treatments listed above (1-21) was washed with PBS+1% FBS, stained with CD8-PerCP, CD45RA-FITC, CCR7-PE and CD62L-APC (5% Y/100 μl/sample for each of 4 antibodies) at 4° C. for 1 h, washed twice with PBS+100 FBS and analyzed on flow cytometer to check if these drugs are enriching T stem cells showing surface expression of CD8+CD45RA+CCR7+CD62L+.
as §6, §7, §8, §9
as §11, with “14” for “13”, “above” for “above (1-21)”, “(5 ul/100 ul/sample” for “(5% Y/100 μl/sample”, “PBS+1%” for “PBS+100”, “enriching for” for “enriching”, “T” for “T stem”

[4] = system: CD45RA+CCR7+CD62L+ T cells; assay: Flow cytometry for CD45RA, CCR7 and CD62L on inhibitor-treated T cells (all T cells); details: cells cultured for 14 days
Method: as §2, §11, §6, §7, §8, §9
as §11, with “14” for “13”, “above” for “above (1-21)”, “(5 ul/100 ul/sample” for “(5% Y/100 μl/sample”, “PBS+1%” for “PBS+100”, “enriching for” for “enriching”, “T” for “T stem”

Row | Compound | p2: pgp+ from Live cells ([1]; 100 nM) | p2: pgp+ from Live cells ([1]; 500 nM) | p5: double +ve pgp+ and CD62L-APC+ from Live cells ([2]; 100 nM) | p5: double +ve pgp+ and CD62L-APC+ from Live cells ([2]; 500 nM) | GATE P4 CD8(PerCP)+, CD45RA(FITC)+, CCR7 (PE)+, CD62L(APC) ([3]; 100 nM) | GATE P4 CD8(PerCP)+, CD45RA(FITC)+, CCR7 (PE)+, CD62L(APC) ([3]; 500 nM) | GATE P6 CD45RA(FITC)+, CCR7 (PE)+, CD62L(APC) ([4]; 100 nM) | GATE P6 CD45RA(FITC)+, CCR7 (PE)+, CD62L(APC) ([4]; 500 nM) | p2: pgp+ from Live cells ([1]; 1 μM) | p5: double +ve pgp+ and CD62L-APC+ from Live cells ([2]; 1 μM) | GATE P4 CD8(PerCP)+, CD45RA(FITC)+, CCR7 (PE)+, CD62L(APC) ([3]; 1 μM) | GATE P6 CD45RA(FITC)+, CCR7 (PE)+, CD62L(APC) ([4]; 1 μM)
1 | COc1cc(-c2cn(C)c(=O)c3cnccc23)c(OC)cc1CN(C)C [B9564] | 13.39 | 15.56 | 2.53 | 3.03 | 73.18% | 83.31% | 63.27% | 73.75% | – | – | – | –
2 | CS(=O)(=O)c1ccc(-c2cnc(NCc3ccco3)n3cnnc23)cc1 [EED226] | – | 37.6 | – | 10.41 | – | 70.21% | – | 60.45% | 43.53 | 11.82 | 74.83% | 60.45%

Reference: US20210290676A1, “IMPROVING THE EFFICACY AND SAFETY OF ADOPTIVE CELLULAR THERAPIES” (University of Southern California, priority 2018, published 2021)
